Measurements taken from patent US20240174662A1, “SMALL MOLECULE INHIBITORS OF SALT INDUCIBLE KINASES” (Janssen Biotech, Inc., priority 2021, published 2024).

What follows are molecules tested against SIK2 (Homo sapiens (Human), UniProt Q9H0K1) (assay: SIK2 Enzymatic Assay Version 2 (High ATP)). Details: 3 mM ATP and 200 μM HDAC5tide final, ADP-Glo Max luminescence.
Format: biochemical
In short: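 Luminescent ADP-Glo Max read-out: depletion reagent 2 h, then detection reagent 1 h. Before the reaction, compounds were incubated 30 min with enzyme added at 6 nM (twice final concentration), with all steps at room temperature.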

SIK2, sequence (Q9H0K1 whole entry, species assumed): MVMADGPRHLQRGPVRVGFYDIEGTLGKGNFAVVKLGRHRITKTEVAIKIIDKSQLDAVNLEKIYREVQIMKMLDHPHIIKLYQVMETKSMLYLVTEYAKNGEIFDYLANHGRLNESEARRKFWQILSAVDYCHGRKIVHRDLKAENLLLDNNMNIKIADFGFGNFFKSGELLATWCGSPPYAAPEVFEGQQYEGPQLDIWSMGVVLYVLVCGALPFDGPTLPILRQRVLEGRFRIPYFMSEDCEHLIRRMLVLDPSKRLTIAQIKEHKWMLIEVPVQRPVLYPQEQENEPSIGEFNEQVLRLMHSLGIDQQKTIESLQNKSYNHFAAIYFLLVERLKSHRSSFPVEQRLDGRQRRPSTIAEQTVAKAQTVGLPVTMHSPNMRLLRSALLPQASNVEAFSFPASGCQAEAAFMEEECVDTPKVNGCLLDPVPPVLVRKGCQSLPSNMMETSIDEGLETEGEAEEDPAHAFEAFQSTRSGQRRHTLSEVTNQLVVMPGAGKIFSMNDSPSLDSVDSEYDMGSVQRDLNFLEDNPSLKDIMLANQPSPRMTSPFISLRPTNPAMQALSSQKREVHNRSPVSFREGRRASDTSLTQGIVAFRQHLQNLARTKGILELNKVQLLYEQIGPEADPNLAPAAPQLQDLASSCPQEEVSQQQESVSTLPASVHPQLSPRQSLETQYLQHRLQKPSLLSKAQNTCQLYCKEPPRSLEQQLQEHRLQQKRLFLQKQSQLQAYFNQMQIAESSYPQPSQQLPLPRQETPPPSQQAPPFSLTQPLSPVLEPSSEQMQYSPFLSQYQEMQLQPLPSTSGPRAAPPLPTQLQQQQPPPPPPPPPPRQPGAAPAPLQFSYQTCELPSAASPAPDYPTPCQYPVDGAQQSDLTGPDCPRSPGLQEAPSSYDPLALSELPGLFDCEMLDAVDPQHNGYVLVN

First: CCN1CC[C@@H]1COc1cnn(C)c1-c1ccn2nc(Nc3cc(C)c(C)nn3)cc2c1 [Example 18, (R)—N-(5,6-Dimethylpyridazin-3-yl)-5-(4-((1-ethylazetidin-2-yl)methoxy)-1-methyl-1H-pyrazol-5-yl)pyrazolo[1,5-a]pyridin-2-amine]
Second: CCN1CC[C@@H]1COc1cnn(C)c1-c1ccn2nc(Nc3cnc(C)c(C)n3)cc2c1 [Example 22, (R)—N-(5,6-Dimethylpyrazin-2-yl)-5-(4-((1-ethylazetidin-2-yl)methoxy)-1-methyl-1H-pyrazol-5-yl)pyrazolo[1,5-a]pyridin-2-amine]
The IC50 of the first is higher: 1 nM for the first, less than 0.847 nM for the second.

`CCN1CC[C@@H]1COc1cnn(C)c1-c1ccn2nc(Nc3cc(C)ncn3)cc2c1` [Example 19, 5-[4-[[(2R)-1-Ethylazetidin-2-yl]methoxy]-2-methyl-pyrazol-3-yl]-N-(6-methylpyrimidin-4-yl)pyrazolo[1,5-a]pyridin-2-amine] and `CCN1CC[C@@H]1COc1cnn(C)c1-c1ccn2nc(Nc3cnc(C)cn3)cc2c1` [Example 21, (R)-5-(4-((1-Ethylazetidin-2-yl)methoxy)-1-methyl-1H-pyrazol-5-yl)-N-(5-methylpyrazin-2-yl)pyrazolo[1,5-a]pyridin-2-amine] are within 1.5-fold of each other in IC50: 1.2 nM for the first, 0.9 nM for the second.

First: CCN1CC[C@@H]1COc1cnn(C)c1-c1ccn2nc(Nc3cncc(C)n3)cc2c1 [Example 20, (R)-5-(4-((1-Ethylazetidin-2-yl)methoxy)-1-methyl-1H-pyrazol-5-yl)-N-(6-methylpyrazin-2-yl)pyrazolo[1,5-a]pyridin-2-amine]
Second: Cc1ncc(Nc2cc3cc(-c4c(OC[C@H]5CCN5C)cnn4C)ccn3n2)nc1C [Example 23, N-(5,6-Dimethylpyrazin-2-yl)-5-[2-methyl-4-[[(2R)-1-methylazetidin-2-yl]methoxy]pyrazol-3-yl]pyrazolo[1,5-a]pyridin-2-amine]
The IC50 of the first is lower: less than 0.847 nM for the first, 1.2 nM for the second.

First: C[C@@H]1CN(C)[C@H]1COc1cnn(C)c1-c1ccn2nc(NC(=O)C3CC3)cc2c1 [Example 24, N-[5-[4-[[(2R,3R)-1,3-Dimethylazetidin-2-yl]methoxy]-2-methyl-pyrazol-3-yl]pyrazolo[1,5-a]pyridin-2-yl]cyclopropanecarboxamide]
Second: CCN1CC[C@@H]1COc1cnn(C)c1-c1ccn2nc(NC(=O)[C@H]3C[C@@H]3C)cc2c1 [Example 25, (1S,2S)—N-[5-[4-[[(2R)-1-ethylazetidin-2-yl]methoxy]-2-methyl-pyrazol-3-yl]pyrazolo[1,5-a]pyridin-2-yl]-2-methyl-cyclopropanecarboxamide]
The IC50 of the first is 6-fold higher: 34.9 nM for the first, 5.8 nM for the second. The second is the more potent here.

First: CN1CC[C@@H]1COc1cnn(C)c1-c1ccn2nc(NC(=O)c3cnn(C)c3)cc2c1 [Example 26, 1-methyl-N-[5-[2-methyl-4-[[(2R)-1-methylazetidin-2-yl]methoxy]pyrazol-3-yl]pyrazolo[1,5-a]pyridin-2-yl]pyrazole-4-carboxamide]
Second: Cn1ncc(OC[C@@H](O)c2ccccc2)c1-c1ccn2nc(NC(=O)C3CC3)cc2c1 [Example 27, N-[5-[4-[(2S)-2-hydroxy-2-phenyl-ethoxy]-2-methyl-pyrazol-3-yl]pyrazolo[1,5-a]pyridin-2-yl]cyclopropanecarboxamide]
The IC50 of the first is 27-fold higher: 319 nM for the first, 11.8 nM for the second. The second is the more potent here.

First: COC1(COc2noc(C)c2-c2ccn3nc(NC(=O)C4CC4)cc3c2)CN(C)C1 [Example 29, N-[5-[3-[(3-methoxy-1-methyl-azetidin-3-yl)methoxy]-5-methyl-isoxazol-4-yl]pyrazolo[1,5-a]pyridin-2-yl]cyclopropanecarboxamide]
Second: Cc1onc(OC[C@@H](N)c2ccccc2)c1-c1ccn2nc(NC(=O)C3CC3)cc2c1 [Example 31, N-[5-[3-[(2S)-2-amino-2-phenyl-ethoxy]-5-methyl-isoxazol-4-yl]pyrazolo[1,5-a]pyridin-2-yl]cyclopropanecarboxamide]
The IC50 of the first is 360-fold higher: 360 nM for the first, 1 nM for the second.

Work on `COC1(COc2noc(C)c2-c2ccn3nc(Nc4cc(C)nc(C)n4)cc3c2)CNC1` [Example 30, N-(2,6-dimethylpyrimidin-4-yl)-5-[3-[(3-methoxyazetidin-3-yl)methoxy]-5-methyl-isoxazol-4-yl]pyrazolo[1,5-a]pyridin-2-amine] yielded an IC50 of 5.2 nM.
